# Literature values, collected in patent US20190046547A1, “COMPOSITIONS AND METHODS FOR TREATING CHRONIC WOUNDS” (Hackensack University Medical Center, priority 2016, published 2019).
# Test system: infected pneumonectomy cavity
# Conditions: single case
structure (smiles),measurement,value
OC[C@H]1O[C@@](CO)(O[C@H]2O[C@H](CO)[C@@H](O)[C@H](O)[C@H]2O)[C@@H](O)[C@@H]1O [granulated sugar],adverse events,severe hyponatremia and acute renal failure
